Measured values as given in ChEMBL document CHEMBL6127112, “Discovery of Novel Nonpeptidic Proteasome Inhibitors Using Covalent Virtual Screening and Biological Evaluation” (ACS Med Chem Lett, 2024).
The source made the active and inactive calls. The calls are words filed in the database; no cut-off is given here.

Experiments:
[1] = target: T1, 20S proteasome (Homo sapiens) (UniProt P49721+P20618+P28074+P28062+P28065+P28072+P25786+P25787+P25788+P25789+P28066+P60900+O14818+Q8TAA3+P40306+A5LHX3+P49720+P28070+Q99436); test: Inhibition of human erythrocyte-derived 20S constitutive proteasome protein at 100 uM using Suc-LLVY-AMC as substrate preincubated for 15 mins followed by substrate addition and measured after 30 mins by multimode plate reader analysis relative to control; details: time 45.0 min
[2] = target: T1, 20S proteasome (Homo sapiens); test: Inhibition of human 20S immunoproteasome protein at 100 uM using Suc-LLVY-AMC as substrate preincubated for 15 mins followed by substrate addition and measured after 30 mins by multimode plate reader analysis relative to control; assay type: protein-complex assay; details: time 45.0 min
[3] = target: T1, 20S proteasome (Homo sapiens); test: (§1) Inhibition of human erythrocyte-derived 20S constitutive proteasome protein using Suc-LLVY-AMC as substrate preincubated for 15 mins followed by substrate addition and measured after 30 mins by multimode plate reader analysis; details: time 45.0 min
[4] = target: 20S proteasome; test: as §1
[5] = test system: NCI-H929; test: Antiproliferative activity against human NCI-H929 cells assessed as reduction in cell viability incubated for 72 hrs by CellTiter 96 non-radioactive cell proliferation assay; assay type: functional, cell-based
[6] = Cytotoxicity against HEK293T cells assessed as reduction in cell viability incubated for 72 hrs by CellTiter 96 non-radioactive cell proliferation assay; assay type: toxicity, cell-based, HEK-293T; details: human
[7] = target: Cathepsin B (Homo sapiens, UniProt P07858); test: Inhibition of human Cathepsin B using Ac-RR-AFC as substrate preincubated for 10 to 15 mins followed by substrate addition and measured for 30 to 60 mins by fluorescence based assay
[8] = target: Procathepsin L (Homo sapiens, UniProt P07711); test: Inhibition of Cathepsin L (unknown origin) using AFC based peptide as substrate by fluorometric assay
[9] = target: T2, Caspase-2 (Homo sapiens, UniProt P42575); test: Inhibition of Caspase-2 (unknown origin) by fluorometric assay
T2 sequence (P42575 whole entry): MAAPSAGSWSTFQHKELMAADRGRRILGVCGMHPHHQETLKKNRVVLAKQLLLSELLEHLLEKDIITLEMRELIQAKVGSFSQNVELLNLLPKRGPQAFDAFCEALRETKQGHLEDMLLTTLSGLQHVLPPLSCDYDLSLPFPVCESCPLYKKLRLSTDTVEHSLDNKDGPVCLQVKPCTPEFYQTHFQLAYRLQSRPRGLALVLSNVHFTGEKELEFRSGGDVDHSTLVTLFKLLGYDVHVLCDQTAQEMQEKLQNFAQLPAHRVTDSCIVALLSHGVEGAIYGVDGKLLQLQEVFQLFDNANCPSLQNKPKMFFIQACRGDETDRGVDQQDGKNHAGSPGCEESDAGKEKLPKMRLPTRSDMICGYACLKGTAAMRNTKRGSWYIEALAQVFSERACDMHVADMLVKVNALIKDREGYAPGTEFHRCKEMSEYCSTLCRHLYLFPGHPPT

[10] = target: Angiotensin-converting enzyme 2 (Homo sapiens, UniProt Q9BYF1); test: Inhibition of human His-tagged ACE2 (18 to 740 residues) using ACE2 fluorogenic substrate incubated for 60 mins by fluorescence based assay
Sequence of Angiotensin-converting enzyme 2 (Q9BYF1 whole entry, the tested form may be a part): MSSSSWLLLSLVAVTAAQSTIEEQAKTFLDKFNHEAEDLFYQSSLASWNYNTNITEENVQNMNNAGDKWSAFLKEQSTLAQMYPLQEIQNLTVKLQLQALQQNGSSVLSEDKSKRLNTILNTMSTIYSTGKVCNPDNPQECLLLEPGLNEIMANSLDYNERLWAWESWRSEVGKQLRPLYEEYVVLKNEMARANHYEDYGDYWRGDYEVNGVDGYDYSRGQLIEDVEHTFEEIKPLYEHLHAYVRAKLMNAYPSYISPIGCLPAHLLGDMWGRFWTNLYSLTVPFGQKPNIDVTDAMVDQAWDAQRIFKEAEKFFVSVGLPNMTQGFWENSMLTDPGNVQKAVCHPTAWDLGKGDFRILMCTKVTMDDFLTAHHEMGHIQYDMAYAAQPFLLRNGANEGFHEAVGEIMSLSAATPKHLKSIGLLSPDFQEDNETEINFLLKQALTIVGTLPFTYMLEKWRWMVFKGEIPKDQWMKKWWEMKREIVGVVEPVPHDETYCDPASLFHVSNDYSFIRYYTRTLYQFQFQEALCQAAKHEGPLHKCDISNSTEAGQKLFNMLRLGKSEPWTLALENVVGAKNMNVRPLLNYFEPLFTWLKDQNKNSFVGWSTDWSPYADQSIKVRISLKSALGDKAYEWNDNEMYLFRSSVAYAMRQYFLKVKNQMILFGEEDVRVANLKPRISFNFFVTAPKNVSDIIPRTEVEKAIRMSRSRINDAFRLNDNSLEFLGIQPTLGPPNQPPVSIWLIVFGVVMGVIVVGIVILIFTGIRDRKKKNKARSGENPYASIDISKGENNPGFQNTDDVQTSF

Sequence of Procathepsin L (P07711 whole entry): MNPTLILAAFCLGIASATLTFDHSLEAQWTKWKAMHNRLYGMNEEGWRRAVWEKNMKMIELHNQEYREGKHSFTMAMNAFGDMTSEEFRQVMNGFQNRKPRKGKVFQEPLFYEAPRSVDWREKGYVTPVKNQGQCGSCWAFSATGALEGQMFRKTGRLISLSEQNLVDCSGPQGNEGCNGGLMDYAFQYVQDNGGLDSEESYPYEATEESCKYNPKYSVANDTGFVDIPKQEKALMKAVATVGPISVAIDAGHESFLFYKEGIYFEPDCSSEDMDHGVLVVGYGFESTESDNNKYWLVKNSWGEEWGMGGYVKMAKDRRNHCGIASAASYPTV

In the case of COc1ccc(NC(=O)C(=O)c2cn(CC(=O)N3CCOCC3)c3ccccc23)cc1OC, the inhibition [1] is reported as 50%, the inhibition [2] is reported as 50% and the inhibition [3] is reported as “Dose-Dependent Effect”. The IC50 [4] was 107 µM.

Work on O=C(NCc1ccccc1)C(=O)c1cn(CC(=O)N2CCOCC2)c2ccccc12 yielded an inhibition [1] of 26%.

In the case of COc1cc(NC(=O)C(=O)c2ccn(Cc3ccccc3)c2)cc(OC)c1, the inhibition [3] is reported as “inactive”.

With COc1ccc(NC(=O)C(=O)c2cn(CC(=O)N3CCCCC3)c3ccccc23)cc1OC the IC50 [4] was 18.5 µM, the Activity [5] was “Dose-Dependent Effect” and the CC50 at 72 h [6] was > 200 µM. For the same compound, the IC50 [7] was > 100 µM, the IC50 [8] was > 100 µM and the IC50 [9] was > 100 µM. For the same compound, the IC50 [10] was > 100 µM.

For CC(=O)Nc1ccc(NC(=O)C(=O)c2cn(CC(=O)N3CCOCC3)c3ccccc23)cc1, the inhibition [3] was “inactive”.

In the case of CCN(CC)C(=O)Cn1cc(C(=O)C(=O)Nc2ccc3c(c2)OCCO3)c2ccccc21, the IC50 [4] is reported as 12.4 µM, the Activity [5] is reported as “Dose-Dependent Effect” and the CC50 at 72 h [6] is reported as > 200 µM. For the same compound, the IC50 [7] was > 100 µM, the IC50 [8] was > 100 µM and the IC50 [9] was > 100 µM. The IC50 [10] was > 100 µM.

With O=C(Nc1ccccc1-c1ccccc1)C(=O)c1cn(CC(=O)N2CCOCC2)c2ccccc12 the inhibition [3] was “inactive”.

Compound O=C(Nc1ccc2c(c1)OCCO2)C(=O)c1cn(CC(=O)N2CCOCC2)c2ccccc12 has an IC50 [4] of 40.8 µM.

CC(=O)c1cccc(NC(=O)C(=O)c2cn(CC(=O)N3CCOCC3)c3ccccc23)c1 gave an IC50 [4] of 31.3 µM.

With O=C(Nc1ccccc1)C(=O)c1cn(CC(=O)N2CCOCC2)c2ccccc12 the inhibition [1] was 55%.

In the case of O=C(Nc1ccc2c(c1)OCCO2)C(=O)c1cn(Cc2ccc(Cl)cc2)c2ccccc12, the inhibition [3] is reported as “inactive”.

In the case of Cc1ccc(NC(=O)C(=O)c2cn(CC(=O)N3CCOCC3)c3ccccc23)c(C)c1, the inhibition [3] is reported as “inactive”.

In the case of CC[C@@H](C)NC(=O)C(=O)c1cn(CC(=O)N2CCOCC2)c2ccccc12, the IC50 [4] is reported as 69.2 µM.
